Assay results: paper PMC7292393 (PLoS ONE, 2020)
“Also recorded” adds a separate entry of the source.

Legend:
[1] = target: T1, bovine ubiquitin (Bos taurus, UniProt P0CG53); test: SPR binding to ubiquitin surface; settings: Fig 2J
T1 construct: native bovine ubiquitin (U6253); purchased Sigma-Aldrich U6253
Procedure: All injections were performed in a Biacore T200 (GE Healthcare, Chicago, IL) at a flow rate of 20 μl/min in running buffer (20 mM Hepes (pH 7.4), 150 mM NaCl, 5 mM MgCl2, 0.0005% Tween 20) at 25°C. CMD200 and HC1500 sensor chips (Zantec Bioanalytics, Duesseldorf, Germany) were used for the primary and secondary SPR screens and for obtaining SPR sensograms shown in Fig 2I and 2J, respectively. SUMO1 surface in CMD-200 sensor chip and HC1500 sensor chip were generated with immobilization levels 10887 and 19639 resonance units (RU), respectively. Ubiquitin surface in HC1500 sensor chip was generated with 6106 RU. Human SUMO1 and bovine ubiquitin biosensors were prepared by standard amine coupling chemistry as follows: An equal volume of 0.1 M N-hydroxysuccinimide (NHS) and 0.4 M ethyl(dimethylaminopropyl) carbodiimide was injected for 7 min at 5 μl/min over a single flow cell. Following this step, human SUMO1 or bovine ubiquitin (100 μg/ml in pH 4.5 acetate buffer) was injected for 15 min, immediately followed by a 7 min injection of 1M ethanolamine (pH 9). […] RUmax was calculated as 8320/MW ratio, where 8320 is AU of human SUMO1 immobilized onto the chip and MW ratio is the ratio of MW (Da) of SUMO1 to flavonoid. […]

[2] = target: T1, bovine ubiquitin; test: Fluorescence quenching of fisetin; type: binding; settings: 0.5 μM fisetin, corrected for dilution
Procedure: (§1) The spectrum between 390–600 nm was measured with a PerkinElmer LS-55 fluorescence spectrometer. […] Excitation and emission slit wavelengths were 5 and 10 nm, respectively, with scan speed of 500 nm/min. […] Values were corrected for dilution as follows: Relative fluorescence values were calculated by subtracting fluorescence quenching observed upon addition of buffer alone.

[3] = target: T2, human SUMO1 (Homo sapiens, UniProt P63165); test: Fluorescence quenching of fisetin; type: binding; settings: 0.5 μM fisetin, emission 511.5 nm, corrected for dilution
T2 construct: encoding amino acids 1–97 of mature human SUMO1; host or cells: E. coli BL21 Rosetta (DE3)
Procedure: as §1

[4] = target: T3, sumoylation of HSF1 by SUMO1 (Homo sapiens, UniProt P63165); test: In vitro sumoylation (SUMOlink SUMO-1 Kit), Western blot; type: biochemical; settings: 300 μM fisetin, 30°C for 3 hr
T3 construct: purchased Active Motif 40120; host or cells: HSF1 substrate made in house in E. coli BL21 Rosetta (DE3)
Text: (§2) To this end, we performed in vitro sumoylation experiments in which the cellular sumoylation reaction was reconstituted using purified human SUMO1, E1 activating enzyme, E2 conjugating enzyme, and two putative protein substrates (human tumor suppressor p53 and human transcription factor HSF1). E1 activating enzyme functions by transferring active SUMO1 protein to the E2 conjugating enzyme Ubc9, which in turn attaches SUMO1 onto target protein substrates. Both p53 and HSF1 proteins are linked to sumoylation as well as to cancer pathways.
(§3) Proteins were separated by SDS-PAGE using 4–20% or 7.5% Mini-PROTEAN TGX Precast Protein Gels (Bio-Rad, Hercules, CA) followed by detection with Bio-Safe Coomassie Stain (Bio-Rad). For Western immunoblotting experiments, proteins in SDS-PAGE gels were transferred onto a PVDF membrane at 4°C using Mini Trans-Blot Cell (Bio-Rad), blocked with 5% nonfat milk for 1 hr at room T or overnight at 4°C and incubated with the following primary antibodies at indicated dilutions for 1 hr at room T: 1:10,000 HSF1 polyclonal antibody (Enzo Life Sciences ADI-SPA-901-F; Lausen, Switzerland), 1:4000 p53 rabbit antibody (SUMOlink SUMO-1 Kit), 1:5000 SUMO-1 rabbit antibody (SUMOlink SUMO-1 Kit). Secondary antibody incubation was performed for 1 hr at room T using 1:10,000 goat anti-rabbit IgG polyclonal antibody (Enzo Life Sciences, ADI-SAB-300). […]

[5] = target: T4, sumoylation of tumor suppressor p53 by SUMO1 (Homo sapiens, UniProt P63165); test: as above; type: biochemical; settings: 300 μM fisetin, 30°C for 3 hr
T4 construct: purchased Active Motif 40120
Text: as §2, §3

T4 sequence (P63165 1-97 limits assumed): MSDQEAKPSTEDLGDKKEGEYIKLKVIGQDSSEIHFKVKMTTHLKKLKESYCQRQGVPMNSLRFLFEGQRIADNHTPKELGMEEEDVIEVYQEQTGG
T2 sequence (P63165 1-97): as the sequence (P63165 1-97 limits assumed) above
T3 sequence (P63165 1-97 limits assumed): as above

O=c1c(O)c(-c2ccc(O)c(O)c2)oc2cc(O)ccc12 [Fisetin, 3,3',4',7-tetrahydroxyflavone]
SPR binding to bovine ubiquitin [1]: failed to bind to bovine ubiquitin
SPR binding to bovine ubiquitin ([1]; listed as fisetin): no appreciable binding
quenching of fisetin fluorescence by ubiquitin [2]: only marginal quenching
quenching of fisetin fluorescence by SUMO1 [3]: Saturable binding was observed
sumoylation of HSF1 in vitro [4]: failed to alter sumoylation
sumoylation of p53 in vitro [5]: no SUMO conjugates of p53 were detected; also recorded: completely inhibits sumoylation
